Laboratory results reported in ChEMBL document CHEMBL1131949, “Stereoselective synthesis and receptor activity of conformationally defined retinoid X receptor selective ligands” (Bioorg Med Chem Lett, 1999).

Columns and labels:
[1] = target: T1, Retinoic acid receptor RXR-beta (Homo sapiens, UniProt P28702); assay: Inhibition of [3H]-9-cis RA binding to Retinoid X receptor RXR beta
T1 sequence (P28702 whole entry): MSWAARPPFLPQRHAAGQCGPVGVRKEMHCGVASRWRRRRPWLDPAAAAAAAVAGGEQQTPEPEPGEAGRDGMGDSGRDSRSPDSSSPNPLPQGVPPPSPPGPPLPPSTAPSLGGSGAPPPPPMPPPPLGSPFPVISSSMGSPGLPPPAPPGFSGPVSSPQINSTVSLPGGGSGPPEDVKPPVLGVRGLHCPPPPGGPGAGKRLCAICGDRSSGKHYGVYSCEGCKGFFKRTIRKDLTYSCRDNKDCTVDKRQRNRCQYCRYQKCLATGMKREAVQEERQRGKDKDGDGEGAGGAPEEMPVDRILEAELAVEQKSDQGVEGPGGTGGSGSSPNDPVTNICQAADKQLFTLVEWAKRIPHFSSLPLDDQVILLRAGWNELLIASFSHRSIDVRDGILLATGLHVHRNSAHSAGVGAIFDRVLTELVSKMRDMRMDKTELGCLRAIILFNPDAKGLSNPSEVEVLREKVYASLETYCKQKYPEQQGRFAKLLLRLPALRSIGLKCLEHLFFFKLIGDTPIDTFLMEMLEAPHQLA

[2] = target: T2, Retinoic acid receptor RXR-gamma (Homo sapiens, UniProt P48443); assay: Inhibition of [3H]-9-cis RA binding to Retinoid X receptor RXR gamma
T2 sequence (P48443 whole entry): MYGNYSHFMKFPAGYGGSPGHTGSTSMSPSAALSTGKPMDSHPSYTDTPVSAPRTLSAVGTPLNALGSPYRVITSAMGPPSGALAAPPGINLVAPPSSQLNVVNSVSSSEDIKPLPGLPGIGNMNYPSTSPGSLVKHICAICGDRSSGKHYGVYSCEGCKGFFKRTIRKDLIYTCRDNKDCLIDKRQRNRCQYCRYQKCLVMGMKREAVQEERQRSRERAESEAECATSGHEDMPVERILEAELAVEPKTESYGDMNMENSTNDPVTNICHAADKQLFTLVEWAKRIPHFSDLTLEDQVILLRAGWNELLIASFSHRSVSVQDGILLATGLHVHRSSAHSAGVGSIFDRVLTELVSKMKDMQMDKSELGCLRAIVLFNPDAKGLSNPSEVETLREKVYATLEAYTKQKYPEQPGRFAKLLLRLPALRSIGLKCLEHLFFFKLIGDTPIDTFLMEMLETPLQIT

Row | Kd [1] [nM] | Kd [2] [nM] | Structure (SMILES)
1 | 53 | 35 | CC1=C(/C=C/c2ccccc2/C=C/C(C)=C/C(=O)O)C(C)(C)CCC1
2 | 15 | 14 | CC1=C(/C=C/c2occc2/C=C/C(C)=C/C(=O)O)C(C)(C)CCC1
